Data reported in patent publication US8399462B2, “JNK modulators” (Roche Palo Alto LLC, priority 2006, dated 2013).
Several values for one entry are separate records, joined by “and”; a condition that tells them apart may be missing. Identical values can stand only once.

| SMILES | melting point |
| --- | --- |
| CS(=O)(=O)CCCOc1cccc2c1ccn2-c1ccnc(N[C@H]2CC[C@H](C(=O)N3CCCC(O)C3)CC2)n1 (stereo partly shown) [Compound 291, (3-hydroxy-piperidin-1-yl)-(4-{4-[4-(3-methane-sulfonyl-propoxy)-indol-1-yl]-pyrimidin-2-ylamino}-cyclohexyl)-methanone] | 167.3 to 170.5 °C |
| CC1(O)CCN(C(=O)[C@H]2CC[C@H](Nc3nccc(-n4ccc5c(OCCCS(C)(=O)=O)cccc54)n3)CC2)CC1 [Compound 292, (4-hydroxy-4-methyl-piperidin-1-yl)-(4-{4-[4-(3-methanesulfonyl-propoxy)-indol-1-yl]-pyrimidin-2-ylamino}-cyclohexyl)-methanone] | 132.6 to 137.7 °C |
| CNC1CCN(C(=O)[C@H]2CC[C@H](Nc3nccc(-n4ccc5c(OCCCS(C)(=O)=O)cccc54)n3)CC2)CC1 [Compound 293, (4-{4-[4-(3-methane-sulfonyl-propoxy)-indol-1-yl]-pyrimidin-2-ylamino}-cyclohexyl)-(4-methylamino-piperidin-1-yl)-methanone] | 187.5 to 189.1 °C |
| CS(=O)(=O)CCCOc1cccc2c1ccn2-c1ccnc(N[C@H]2CC[C@H](NS(=O)(=O)c3cccs3)CC2)n1 [Compound 294, Thiophene-2-sulfonic-acid (4-{4-[4-(3-methane-sulfonyl-propoxy)-indol-1-yl]-pyrimidin-2-ylamino}-cyclohexyl)-amide] | 226 to 227 °C |
| CN(C)C1CCN(C(=O)[C@H]2CC[C@H](Nc3nccc(-n4cc(C(N)=O)c5ccccc54)n3)CC2)CC1 [Compound 295, 1-{2-[4-(4-dimethylamino-piperidine-1-carbonyl)-cyclohexylamino]-pyrimidin-4-yl}-1H-indole-3-carboxylic acid amide] | 219 to 221 °C |
| CS(=O)(=O)CCCOc1cccc2c1ccn2-c1ccnc(N[C@H]2CC[C@H](C(=O)N3CCC(S(C)(=O)=O)CC3)CC2)n1 [Compound 297, (4-methanesulfonyl-piperidin-1-yl)-(4-{4-[4-(3-methanesulfonyl-propoxy)-indol-1-yl]-pyrimidin-2-ylamino}-cyclohexyl)-methanone] | 215 to 219 °C |
| NS(=O)(=O)CCCOc1cccc2c1ccn2-c1ccnc(N[C@H]2CC[C@H](C(=O)N3CCC3)CC2)n1 [Compound 299, 3-(1-{2-[4-(azetidin-1-carbonyl)-cyclohexyl-amino]-pyrimidin-4-yl}-1H-indol-4-yloxy)-propane-1-sulfonic acid amide] | 218.4 to 220.9 °C |
| CN(C)C1CCN(C(=O)[C@H]2CC[C@H](Nc3nccc(-n4ccc5c(OCCCS(N)(=O)=O)cccc54)n3)CC2)CC1 [Compound 300, 3-(1-{2-[4-(4-dimethyl-amino-piperidine-1-carbonyl)-cyclohexyl-amino]-pyrimidin-4-yl}-1H-indol-4-yloxy)-propane-1-sulfonic acid amide] | 135.7 to 142.7 °C |
| CS(=O)(=O)CCCOc1cccc2c1ccn2-c1ccnc(N[C@H]2CC[C@H](C(=O)N3CCC(NC4CC4)CC3)CC2)n1 [Compound 302, (4-cyclopropylamino-piperidin-1-yl)-(4-{4-[4-(3-methanesulfonyl-propoxy)-indol-1-yl]-pyrimidin-2-ylamino}-cyclohexyl)-methanone] | 196.3 to 197.9 °C |
| CCNC(=O)[C@H]1CC[C@H](Nc2nccc(-n3ccc4c(OCCCS(=O)(=O)NC)cccc43)n2)CC1 [Compound 303, 4-{4-[4-(3-methane-sulfamoyl-propoxy)-indol-1-yl]-pyrimidin-2-ylamino}-cyclohexane-carboxylic acid ethyl-amide] | 201.7 to 203.2 °C |
| CS(=O)(=O)CCCOc1cccc2c1ccn2-c1ccnc(N[C@H]2CC[C@H](C(=O)N3CCC(CN)CC3)CC2)n1 [Compound 304, (4-aminomethyl-piperidin-1-yl)-(4-{4-[4-(3-methanesulfonyl-propoxy)-indol-1-yl]-pyrimidin-2-ylamino}-cyclohexyl)-methanone] | 124.1 to 126.1 °C and 124 to 126 °C |
| CS(=O)(=O)CCCOc1cccc2c1ccn2-c1ccnc(N[C@H]2CC[C@H](N3CCCS3(=O)=O)CC2)n1 [Compound 305, [4-(1,1-dioxo-isothiazolidin-2-yl)-cyclohexyl]-{4-[4-(3-methane-sulfonyl-propoxy)-indol-1-yl]-pyrimidin-2-yl}-amine] | 164.1 to 172.5 °C |
| CS(=O)(=O)CCCOc1cccc2c(-c3ccnc(N[C@H]4CC[C@H](NS(C)(=O)=O)CC4)n3)noc12 [Compound 306, N-(4-{4-[7-(3-methane-sulfonyl-propoxy)-benzo[d]isoxazol-3-yl]-pyrimidin-2-ylamino}-cyclohexyl)-methane-sulfonamide] | 225 to 226 °C |
| CS(=O)(=O)CCCOc1cccc2c(-c3ccnc(N[C@H]4CC[C@H](C(=O)N5CCC(O)CC5)CC4)n3)noc12 [Compound 307, (4-hydroxy-piperidin-1-yl)-(4-{4-[7-(3-methane-sulfonyl-propoxy)-benzo[d]isoxazol-3-yl]-pyrimidin-2-ylamino}-cyclohexyl)-methanone] | 186 to 187 °C |
| CS(=O)(=O)CCCOc1cccc2c(-c3ccnc(N[C@H]4CC[C@H](C(=O)N5CC[C@@H](O)C5)CC4)n3)noc12 [Compound 309, (3-hydroxy-pyrrolidin-1-yl)-(4-{4-[7-(3-methane-sulfonyl-propoxy)-benzo[d]isoxazol-3-yl]-pyrimidin-2-ylamino}-cyclohexyl)-methanone] | 224 to 225 °C |
| CN([C@H]1CC[C@H](Nc2nccc(-c3noc4c(OCCCS(C)(=O)=O)cccc34)n2)CC1)S(C)(=O)=O [Compound 310, N-(4-{4-[7-(3-methane-sulfonyl-propoxy)-benzo[d]isoxazol-3-yl]-pyrimidin-2-ylamino}-cyclohexyl)-N-methyl-methanesulfonamide] | 213.5 to 214.2 °C |
| CS(=O)(=O)N[C@H]1CC[C@H](Nc2nccc(-n3ccc4c(OCC(O)CC(F)(F)F)cccc43)n2)CC1 (stereo partly shown) [Compound 314, N-(4-{4-[4-(4,4,4-trifluoro-2-hydroxy-butoxy)-indol-1-yl]-pyrimidin-2-ylamino}-cyclohexyl)-methanesulfonamide] | 220.7 to 221.5 °C |
| CS(=O)(=O)CCCOc1cccc2c1ccn2-c1ccnc(N[C@H]2CC[C@H](CN3CC[C@@H](O)C3)CC2)n1 [Compound 317, 1-(4-{4-[4-(3-methanesulfonyl-propoxy)-indol-1-yl]-pyirmidin-2-ylamino}-cyclohexylmethyl)-pyrrolidin-3-ol] | 139.6 to 150.3 °C |
| CCOC(=O)[C@H]1CC[C@H](Nc2nccc(-n3ccc4c(OCCCS(N)(=O)=O)cccc43)n2)CC1 [Compound 318, 4-{4-[4-(3-sulfamoyl-propoxy)-indol-1-yl]-pyrimidin-2-ylamino}-cyclohexanecarboxylic acid ethyl ester] | 145 to 148 °C |
| CC(=O)N1CCN(c2cccc3c2ccn3-c2ccnc(N[C@H]3CC[C@H](N(CCO)S(C)(=O)=O)CC3)n2)CC1 [Compound 320, N-(4-{4-[4-(4-acetyl-piperazin-1-yl)-indol-1-yl]-pyrimidin-2-ylamino}-cyclohexyl)-N-(2-hydroxy-ethyl)-methanesulfonamide] | 244.5 to 248.8 °C |
| O[C@H]1CC[C@H](Nc2nccc(-c3n[nH]c4c(C(F)(F)F)cccc34)n2)CC1 [Example 3, trans-4-[4-(7-Trifluoromethyl-1H-indazol-3-yl)-pyrimidin-2-yl-amino]-cyclohexanol] | 265.5 to 270 °C |

Results, then the compound that gave them:

| melting point | SMILES |
| --- | --- |
| 158.7 to 159.6 °C | CSC[C@H]1CC[C@H](Nc2nccc(-n3ccc4c(OCCCS(C)(=O)=O)cccc43)n2)CC1 [Compound 298, {4-[4-(3-methane-sulfonyl-propoxy)-indol-1-yl]-pyrimidin-2-yl}-(4-methylsulfanylmethyl-cyclohexyl)-amine] |
| 190.1 to 200.5 °C | CS(=O)(=O)N[C@H]1CC[C@H](Nc2nccc(-n3ccc4c(N5CCC(O)C5)cccc43)n2)CC1 (stereo partly shown) [Compound 312, N-(4-{4-[4-(3-hydroxy-pyrrolidin-1-yl)-indol-1-yl]-pyrimidin-2-yl-amino}-cyclohexyl)-methanesulfonamide] |
| 246.6 to 248.2 °C | CN(C1CCC(Nc2nccc(-n3cc(S(N)(=O)=O)c4ccccc43)n2)CC1)S(C)(=O)=O (stereo not shown) [Compound 321, 1-{2-[4-(methanesulfonyl-methyl-amino)-cyclohexylamino]-pyrimdin-4-yl}-1H-indole-3-sulfonic acid amide] |
| 253.9 to 254.8 °C | C[C@H]1CC[C@H](Nc2nccc(-n3ncc4c([N+](=O)[O-])cccc43)n2)CC1 [Example 4, trans-(4-Methyl-cyclohexyl)-[4-(4-nitro-indazol-1-yl)-pyrimidin-2-yl]-amine] |
| 248.5 to 252.5 °C | CC(O)CCNC(=O)[C@H]1CC[C@H](Nc2nccc(-n3ncc4ccccc43)n2)CC1 (stereo partly drawn) [Example 5, trans-4-(4-Indazol-1-ylpyrimidin-2-ylamino)-cyclohexane-carboxylic acid (3-hydroxy-butyl)-amide] |
| 191 to 192 °C | O=C([C@H]1CC[C@H](Nc2nccc(-n3ncc4ccccc43)n2)CC1)N1CCOCC1 [Example 6, trans-[4-(4-Indazol-1-yl-pyrimidin-2-ylamino)-cyclohexyl]-morpholin-4-yl-methanone] |
| 259 to 261 °C | O=C(O)c1cccc2c1ccn2-c1ccnc(N[C@H]2CC[C@H](O)CC2)n1 [Example 7, trans-1-[2-(4-Hydroxy-cyclohexylamino)-pyrimidin-4-yl]-1H-indole-4-carboxylic acid] |
| 218.9 to 220.1 °C | Nc1cccc2c1ccn2-c1ccnc(N[C@H]2CC[C@H](O)CC2)n1 [Example 8, trans-4-[4-(4-Aminoindol-1-yl)-pyrimidin-2-ylamino]-cyclohexanol] |
| 246.5 to 248 °C | Oc1ccc2c(ccn2-c2ccnc(N[C@H]3CC[C@H](O)CC3)n2)c1 [Example 9, trans-1-[2-(4-Hydroxycyclohexylamino)-pyrimidin-4-yl]-1H-indol-5-ol] |
| 212 to 213.3 °C | OCc1cccc2c1ccn2-c1ccnc(N[C@H]2CC[C@H](O)CC2)n1 [Example 10, trans-4-[4-(4-Hydroxymethylindol-1-yl)-pyrimidin-2-ylamino]-cyclohexanol] |
